Reference: patent publication US20150157682A1, “VALERIAN EXTRACTS AND USES THEREOF” (priority 2012, published 2015)

Biological target: benzodiazepine receptors (3H-flunitrazepam labelled binding sites)
Assay: 3H-flunitrazepam competition binding assay, crude synaptosomal membranes of rat frontal cortex
Conditions: 1 nM 3H-flunitrazepam
Protocol: For the binding experiment male RjHan:WI rats (Janvier, Le Genest-Saint-Isle, France) were used. […] The animals were housed in groups of 5 in Macrolon IV cages.
For the ^3H-GABA binding assay tissue (dissected rat frontal cortex) was homogenized in 50 mM Tris-HCl buffer pH 7.4 containing 120 mM NaCl, 5 mM KCl, 2 mM CaCl2 and 1 mM MgCl2; for ^3H-flunitrazepam it was homogenized in 50 mM Tris-HCl buffer pH 7.4 containing 1 mM EGTA, 10 mM EDTA and 3 mM MgCl2, centrifuged (50.000 g, 15 min) and washed twice with the corresponding buffer. The resulting pellet was resuspended with buffer. […] Specific binding was calculated by subtracting non-specific binding—defined as that seen in the presence of 1 μM unlabelled GABA or 1 μM diazepam or chlordiazepoxide—from the total binding obtained with radioligand alone. In parallel VE-1, VE-2 and AVA were used for all binding assays. The incubation was terminated by addition of ice-cold buffer and rapid filtration through glass fibre filters. The filters were washed, dried, a scintillation cocktail was added, and radioactivity was counted using a β-counter (Beckman Coulter, Germany).

CN1C(=O)CN=C(c2ccccc2)c2cc(Cl)ccc21 [Diazepam, diazepam]
EC50: 400 ± 50 nM
